Results published in US9949980B2, “Drugs to prevent HPV infection” (Wisconsin Alumni Research Foundation, priority 2008, dated 2018).
Structures can show the parent of a compound that is named as a salt. Where two headings read alike, the source gives them in different places.

Legend:
[1] = system: HPV16 pseudoviruses; test: microbe, parasite or virus in culture; assay type: cell-based; settings: Human papillomavirus 16, HEK-293T, 48 h
Description: (§1) FIG. 1. High throughout screen (HTS) for identifying inhibitors of HPV infection. Shown is a schematic showing basic steps in the HTS. […] Briefly, HPV16 pseudoviruses containing the SEAP reporter genes are analyzed for their ability to infect as judged by the levels of secreted alkaline phosphatase in the tissue culture supernatant (light grey arrows). Cell viability was assessed in parallel on the same wells (dark grey arrows). In the specific HTS carried out in this study, the compounds were added at 3 uM/1% DMSO final concentration (black arrow) 4 hours prior to infection.
(§2) After incubation at 37° C. for 24 hrs, 35 μL of media was removed. […] Cells were incubated at 37° C. for 48 hrs. 2.5 μL of media was collected for SEAP assay using a PHOSPHA-LIGHT chemiluminescent alkaline phosphatase assay (Applied Biosystems). Cell viability was determined using the CellTiter Glo Luminescent Cell Viability Assay™ (Promega).

[2] = in vitro; settings: human
Description: as §1, §2

[3] = system: HPV16 pseudovirus; test: Luciferase assay: HPV16 pseudovirus with renilla luciferase reporter (HPV16wpA-RL); settings: renilla luciferase reporter behind HPV16 promoter
Description: The protocol for the secondary screen was identical to that of the primary screen with the exception that all volumes were scaled up by a factor of four. RL activity was measured using the Renilla Luciferase Assay System (Promega).

[4] = read-out: Infectivity (SEAP Activity), 3 μM HTS standard concentration, 293T cells, 48 hrs
[5] = read-out: Infectivity vs. viability, 3 μM HTS standard concentration, ratio infectivity/viability

Structure (SMILES) | activity at 3 µM [1, 4] | activity at 3 µM [1, 5] | activity at 3 µM ([1]; read-out: Primary HTS SEAP vs Viability, Table 2, first pair of columns (c2)) | activity at 3 µM ([1]; read-out: Primary HTS SEAP vs Viability, Table 2, second pair of columns (c4)) | viability at 52 h, 3 μM ([2]; Primary HTS Viability % Average) | viability at 52 h, 3 μM ([2]; Viability (CelTiter Glow)) | Luciferase assay RL % Average [3] | viability at 52 h, 3 μM [2]
CCOC(=O)CCc1c(C)nc2c(C)c(-c3ccccc3)nn2c1O [Compound 1, ethyl 3-(7-hydroxy-3,5-dimethyl-2-phenylpyrazolo[1,5-a]pyrimidin-6-yl)propanoate] | 22.9% | 24.5% | 13.1% | 32.6% | 85% | 93.4% | 64.85% | –
O=c1oc2c3c4c(cc2cc1CCO)CCCN4CCC3 [Compound 6105180, 10-(2-hydroxyethyl)-2,3,6,7-tetrahydro-1H,5H,11H-pyrano[2,3-f]pyrido[3,2,1-ij]quinolin-11-one] | 56.9% | 49.5% | – | – | – | 115% | – | –
CN(C)c1cccc(C(=O)NCc2ccc(S(N)(=O)=O)cc2)c1 [Compound 6106063, N-[4-(aminosulfonyl)benzyl]-3-(dimethylamino)benzamide] | 45.6% | 43.4% | – | – | – | 105% | – | –
Cc1c(NS(=O)(=O)c2cc(Cl)ccc2Cl)cccc1[N+](=O)[O-] [Compound 6107659, 2,5-dichloro-N-(2-methyl-3-nitrophenyl)benzenesulfonamide] | 22.3% | 32.9% | – | – | – | 67.8% | – | –
CCOc1cccc(C(=O)Nc2ccc(NC(=O)c3ccco3)c(OC)c2)c1 [Compound 6113089, N-{4-[(3-ethoxybenzoyl)amino]-2-methoxyphenyl}-2-furamide] | 54.6% | 52.9% | – | – | – | 103% | – | –
COc1cc(NC(=O)COc2ccccc2C)ccc1NC(=O)c1ccco1 [Compound 6113090, N-(2-methoxy-4-{[(2-methylphenoxy)acetyl]amino}phenyl)-2-furamide] | 55% | 51.9% | – | – | – | 106% | – | –
COc1ccc(S(=O)(=O)Nc2cc(Cl)ccc2C)cc1 [Compound 6118535, N-(5-chloro-2-methylphenyl)-4-methoxybenzenesulfonamide] | 39% | 52.8% | – | – | – | 73.9% | – | –
Cc1cccc(C(=O)Nc2cccc(NC(=O)COc3ccccc3Cl)c2)c1 [Compound 6126189, N-(3-{[(2-chlorophenoxy)acetyl]amino}phenyl)-3-methylbenzamide] | 49.8% | 50.2% | – | – | – | 99.1% | – | –
Cc1ccc(N2C(=O)C(Cl)=C(Nc3ccc(C)c(C)c3)C2=O)c(C)c1 [Compound 6137315, 3-chloro-1-(2,4-dimethylphenyl)-4-[(3,4-dimethylphenyl)amino]-1H-pyrrole-2,5-dione] | 55.9% | 59.7% | – | – | – | 93.7% | – | –
O=C1NC(=S)SC1=Cc1cc(Cl)c(OCc2ccccc2)c(Cl)c1 [Compound 6142367, 5-[4-(benzyloxy)-3,5-dichlorobenzylidene]-2-thioxo-1,3-thiazolidin-4-one] | 61.2% | 57.9% | – | – | – | 106% | – | –
COc1ccc(CCNc2cc(N3CCN(C(=O)c4ccc(Cl)cc4)CC3)ccc2[N+](=O)[O-])cc1OC [Compound 6144357, 5-[4-(4-chlorobenzoyl)-1-piperazinyl]-N-[2-(3,4-dimethoxyphenyl)ethyl]-2-nitroaniline] | 39.5% | 46.6% | – | – | – | 84.6% | – | –
Cc1nc2cc(-c3cccc(F)c3)nn2c(O)c1C [Compound 6156840, 2-(3-fluorophenyl)-5,6-dimethylpyrazolo[1,5-a]pyrimidin-7-ol] | 63.5% | 59.2% | – | – | – | 107% | – | –
Cc1cc(C=C2C(=O)NC(=S)N(c3ccccc3F)C2=O)c(C)n1C [Compound 6166672, 1-(2-fluorophenyl)-2-thioxo-5-[(1,2,5-trimethyl-1H-pyrrol-3-yl)methylene]dihydro-4,6(1H,5H)-pyrimidinedione] | 53.5% | 49.2% | – | – | – | – | – | 109%
COc1ccc(OC)c(NC(=O)CN(c2cc(OC)ccc2OC)S(C)(=O)=O)c1 [Compound 6167601, N~1~,N~2~-bis(2,5-dimethoxyphenyl)-N~2~-(methylsulfonyl)glycinamide] | 59.1% | 54.4% | – | – | – | 109% | – | –
CC(=O)Nc1ccccc1NC(=O)c1ccccc1I [Compound 6168016, N-[2-(acetylamino)phenyl]-2-iodobenzamide] | 57% | 53.7% | – | – | – | 106% | – | –
COC(=O)C1=C(C)NC2=C(C(=O)c3ccccc32)C1c1ccc(-c2ccccc2C(=O)O)o1 (stereo not shown) [Compound 6177037, 2-{5-[3-(methoxycarbonyl)-2-methyl-5-oxo-4,5-dihydro-1H-indeno[1,2-b]pyridin-4-yl]-2-furyl}benzoic acid] | 64% | 58.4% | – | – | – | 110% | – | –

Structure (SMILES) | activity at 3 µM [1, 4] | activity at 3 µM [1, 5] | activity at 3 µM ([1]; read-out: Primary HTS SEAP vs Viability, Table 2, first pair of columns (c2)) | activity at 3 µM ([1]; read-out: Primary HTS SEAP vs Viability, Table 2, second pair of columns (c4)) | viability at 52 h, 3 μM ([2]; Primary HTS Viability % Average) | viability at 52 h, 3 μM ([2]; Viability (CelTiter Glow)) | Luciferase assay RL % Average [3] | viability at 52 h, 3 μM [2]
COc1ccc(N(CC(=O)Nc2ccc(C(C)C)cc2)S(=O)(=O)c2ccccc2)cc1Cl [Compound 6186930, N~2~-(3-chloro-4-methoxyphenyl)-N~1~-(4-isopropylphenyl)-N~2~-(phenylsulfonyl)glycinamide] | 37.9% | 33.5% | – | – | – | 113% | – | –
O=C(NCc1ccccn1)C(=O)Nc1ccc([N+](=O)[O-])cc1 [Compound 6198885, N-(4-nitrophenyl)-N′-(2-pyridinylmethyl)ethanediamide] | 57.5% | 53.8% | – | – | – | 107% | – | –
COC(=O)C1=C(C)NC2=C(C(=O)c3ccccc32)C1c1ccc(OCc2ccc([N+](=O)[O-])cc2)c(Cl)c1 (stereo not shown) [Compound 6202416, methyl 4-{3-chloro-4-[(4-nitrobenzyl)oxy]phenyl}-2-methyl-5-oxo-4,5-dihydro-1H-indeno[1,2-b]pyridine-3-carboxylat] | 51.4% | 42% | – | – | – | 123% | – | –
CS(=O)(=O)N(CC(=O)Nc1cccc(Br)c1)c1ccc(Cl)cc1 [Compound 6218383, N~1~-(3-bromophenyl)-N~2~-(4-chlorophenyl)-N~2~-(methylsulfonyl)glycinamide] | 47.4% | 46.9% | – | – | – | 101% | – | –
CCc1ccccc1N(CC(=O)OC)S(C)(=O)=O [Compound 6226431, methyl N-(2-ethylphenyl)-N-(methylsulfonyl)glycinate] | 62.8% | 55.2% | – | – | – | 114% | – | –
Cc1cccc(C=C2C(=O)NN(c3ccccc3)C2=O)c1 [Compound 6233808, 4-(3-methylbenzylidene)-1-phenyl-3,5-pyrazolidinedione] | 58.5% | 50.2% | – | – | – | 117% | – | –
CC1CCc2c(sc(NC(=O)c3ccccc3)c2C(N)=O)C1 (stereo not shown) [Compound 6239347, 2-(benzoylamino)-6-methyl-4,5,6,7-tetrahydro-1-benzothiophene-3-carboxamide] | 55.1% | 40.5% | – | – | – | 136% | – | –
O=C(NCc1c(Cl)cccc1Oc1ccccc1)Nc1ccc(F)cc1 [HTS 04313, N-(2-chloro-6-phenoxybenzyl)-N′-(4-fluorophenyl)urea] | 36.4% | 42.7% | – | – | – | 85.3% | – | –
N#CCCN1CCCN(CCC#N)CCN(CCC#N)CCCN(CCC#N)CC1 [JFD 02931, 3-[4,8,11-tri(2-cyanoethyl)-1,4,8,11-tetraazacyclotetradecanyl]propanenitrile] | 46.7% | 46.7% | – | – | – | 99.9% | – | –
O=C(CCSc1ccc(C(F)(F)F)cc1)c1ccco1 [MWP 01152, 1-furan-2-yl-3-[4-(trifluoromethyl)phenyl]sulfanylpropan-1-one] | 57.8% | 56.1% | – | – | – | 103% | – | –
CC(=O)Oc1ccc(OC(C)=O)c2c1C1C=CC2CC1 [NRB 00571, 6-(acetyloxy)tricyclo[6.2.2.0~2,7~]dodeca-2(7),3,5,9-tetraen-3-yl acetate] | 49.3% | 45.5% | – | – | – | 108% | – | –
CCNS(=O)(=O)c1ccc(-c2oc3cc(S(=O)(=O)NCC)ccc3c2Cl)cc1 [NRB 00942, 3-chloro-N-ethyl-2-[4-(ethylsulfamoyl)phenyl]-1-benzofuran-6-sulfonamide] | 37.7% | 37.8% | – | – | – | 99.7% | – | –
O=C1C(=Cc2ccccc2)CCCC1CN1CCOCC1 (stereo not shown) [NRB 01540, 2-benzylidene-6-(morpholinomethyl)cyclohexan-1-one hydrochloride] | 50.5% | 49.9% | – | – | – | 101% | – | –
Oc1ccccc1C=NNc1nc2c(Cl)cc(Cl)cc2s1 [RF 02710, 2-hydroxybenzaldehyde N-(4,6-dichloro-1,3-benzothiazol-2-yl)hydrazone] | 34.6% | 36.4% | – | – | – | 94.9% | – | –
ON=Cc1ccc(Cl)s1 [SEW 06085, 5-chlorothiophene-2-carbaldehyde oxime] | 54.9% | 53.2% | – | – | – | 103% | – | –
